Measurements published in article PMC12267109, “The enzyme kinetics of branched‐chain fatty acid synthesis of metazoan fatty acid synthase” (Protein Science : A Publication of the Protein Society, 2025).

Tests used:
[1] = molecular target: T1, metazoan fatty acid synthase (mFAS), murine FAS (Mus musculus, UniProt P19096); experiment: NADPH consumption assay with purified mFAS; GC-MS of methyl-branched fatty acid products; type: biochemical
T1 construct: gene Fasn; full length mFAS

[2] = molecular target: T1, metazoan fatty acid synthase (mFAS), murine FAS; experiment: NADPH consumption by purified mFAS, fluorescence; type: biochemical

T1 sequence (P19096 whole entry): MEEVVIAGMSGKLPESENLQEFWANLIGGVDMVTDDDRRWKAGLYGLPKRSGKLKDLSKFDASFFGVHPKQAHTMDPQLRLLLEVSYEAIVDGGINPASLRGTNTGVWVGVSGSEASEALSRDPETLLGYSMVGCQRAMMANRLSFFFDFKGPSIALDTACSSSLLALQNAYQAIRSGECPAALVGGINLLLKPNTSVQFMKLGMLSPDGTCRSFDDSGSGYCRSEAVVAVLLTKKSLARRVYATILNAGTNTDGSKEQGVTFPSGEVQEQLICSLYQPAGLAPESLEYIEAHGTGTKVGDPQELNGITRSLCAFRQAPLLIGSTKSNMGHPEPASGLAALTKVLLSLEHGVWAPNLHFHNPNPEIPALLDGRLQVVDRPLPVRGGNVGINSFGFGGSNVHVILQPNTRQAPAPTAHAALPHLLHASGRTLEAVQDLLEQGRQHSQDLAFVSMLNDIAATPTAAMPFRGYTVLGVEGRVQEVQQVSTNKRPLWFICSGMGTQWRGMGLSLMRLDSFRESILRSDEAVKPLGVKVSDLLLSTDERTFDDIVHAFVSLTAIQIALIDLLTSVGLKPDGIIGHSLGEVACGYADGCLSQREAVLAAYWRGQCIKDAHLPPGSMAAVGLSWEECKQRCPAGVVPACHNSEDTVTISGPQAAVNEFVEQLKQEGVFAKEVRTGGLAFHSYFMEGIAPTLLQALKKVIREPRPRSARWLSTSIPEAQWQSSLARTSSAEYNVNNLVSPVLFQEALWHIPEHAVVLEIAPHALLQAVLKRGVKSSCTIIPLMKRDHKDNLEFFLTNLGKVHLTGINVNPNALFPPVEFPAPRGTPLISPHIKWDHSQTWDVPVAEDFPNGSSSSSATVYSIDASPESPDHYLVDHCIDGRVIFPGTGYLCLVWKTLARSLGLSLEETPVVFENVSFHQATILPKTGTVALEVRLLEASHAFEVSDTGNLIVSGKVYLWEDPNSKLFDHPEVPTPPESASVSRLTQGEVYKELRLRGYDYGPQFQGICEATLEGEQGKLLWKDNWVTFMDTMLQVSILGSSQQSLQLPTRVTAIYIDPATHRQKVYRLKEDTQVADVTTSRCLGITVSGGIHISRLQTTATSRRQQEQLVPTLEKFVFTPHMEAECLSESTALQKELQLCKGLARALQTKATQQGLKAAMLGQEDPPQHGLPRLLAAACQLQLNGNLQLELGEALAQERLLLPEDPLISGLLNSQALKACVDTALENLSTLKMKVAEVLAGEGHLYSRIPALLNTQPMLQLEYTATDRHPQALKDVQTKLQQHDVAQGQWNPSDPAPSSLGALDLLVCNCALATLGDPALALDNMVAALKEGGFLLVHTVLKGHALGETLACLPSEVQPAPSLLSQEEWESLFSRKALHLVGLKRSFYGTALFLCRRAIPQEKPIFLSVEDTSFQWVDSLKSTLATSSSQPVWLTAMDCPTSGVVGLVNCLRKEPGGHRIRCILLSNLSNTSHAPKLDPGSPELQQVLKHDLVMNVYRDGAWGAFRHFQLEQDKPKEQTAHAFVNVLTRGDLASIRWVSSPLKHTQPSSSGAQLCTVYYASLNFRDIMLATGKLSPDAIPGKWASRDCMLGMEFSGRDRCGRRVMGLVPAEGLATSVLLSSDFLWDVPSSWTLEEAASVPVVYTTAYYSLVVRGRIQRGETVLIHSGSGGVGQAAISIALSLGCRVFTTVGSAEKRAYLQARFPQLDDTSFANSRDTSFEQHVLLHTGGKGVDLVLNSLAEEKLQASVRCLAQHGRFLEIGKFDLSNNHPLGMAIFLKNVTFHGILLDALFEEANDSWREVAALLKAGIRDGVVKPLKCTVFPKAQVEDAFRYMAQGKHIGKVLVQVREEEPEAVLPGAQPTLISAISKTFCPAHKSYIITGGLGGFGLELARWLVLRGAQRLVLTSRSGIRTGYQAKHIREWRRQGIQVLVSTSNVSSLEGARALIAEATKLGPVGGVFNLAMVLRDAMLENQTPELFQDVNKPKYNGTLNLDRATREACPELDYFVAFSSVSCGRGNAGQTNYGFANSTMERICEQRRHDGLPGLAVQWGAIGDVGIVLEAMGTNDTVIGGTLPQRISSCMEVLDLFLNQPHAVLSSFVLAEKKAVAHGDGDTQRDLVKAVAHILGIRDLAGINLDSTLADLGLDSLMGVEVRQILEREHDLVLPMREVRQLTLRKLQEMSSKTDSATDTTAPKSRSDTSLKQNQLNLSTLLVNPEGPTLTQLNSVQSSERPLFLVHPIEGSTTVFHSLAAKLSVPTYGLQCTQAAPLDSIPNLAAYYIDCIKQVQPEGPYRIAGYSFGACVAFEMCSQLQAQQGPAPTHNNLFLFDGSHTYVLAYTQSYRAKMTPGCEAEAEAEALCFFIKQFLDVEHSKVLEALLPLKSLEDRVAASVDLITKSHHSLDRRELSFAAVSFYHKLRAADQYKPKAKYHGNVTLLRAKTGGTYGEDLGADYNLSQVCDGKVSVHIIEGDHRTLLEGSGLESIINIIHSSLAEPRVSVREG

| Structure (SMILES) | NADPH consumption assay with purified mFAS; GC-MS of methyl-branched fatty acid [1] | NADPH consumption by purified mFAS, fluorescence [2] |
| --- | --- | --- |
| CC(C(=O)O)C(=O)SCCNC(=O)CCNC(=O)[C@H](O)C(C)(C)COP(=O)(O)OP(=O)(O)OC[C@H]1O[C@@H](n2cnc3c(N)ncnc32)[C@H](O)[C@@H]1OP(=O)(O)O (mixture of isomers) [methylmalonyl-CoA] | we observed increasing activity with increasing metmal‐CoA in the absence of starter substrates |  |
| NC(=O)C1=CN([C@@H]2O[C@H](COP(=O)(O)OP(=O)(O)OC[C@H]3O[C@@H](n4cnc5c(N)ncnc54)[C@H](OP(=O)(O)O)[C@@H]3O)[C@@H](O)[C@H]2O)C=CC1 [NADPH] |  | (NADPH) consumption of the integrated β‐ketoacyl reductase and enoyl reductase domains |
